# Measurements as given in patent US20050163848A1 (priority 2003, published 2005).
# Where two headings read alike, the source gives them in different places.
# How the values were obtained:
# colonic segments = assay: Macroscopic observation of excised colonic segments for irritation; format: in vivo; conditions: rats, 4 hour after intracolonic bolus 10 mg/rat
# [1] = rats, normalized to 1 mg gabapentin/kg
# in vivo = conditions: male, Sprague-Dawley, rat, plasma
# [2] = n-octanol/0.05M phosphate buffer, pH 7.4; cited from earlier work
# [3] = rats; for AUC∞: time zero to infinity, based on 1 mg gabapentin/rat
# [4] = in water and in both basic and acidic aqueous solutions; cited from earlier work
SMILES,histopathological change of colonic mucosa visible to the naked eye (colonic segments),"AUC (0~4 h) ([1]; duodenal, dose 14.8 ± 0.1 mg/kg)","AUC (0~4 h) ([1]; duodenal, dose 30.6 ± 1.7 mg/kg)","AUC (0~4 h) ([1]; duodenal, dose 59.8 ± 1.7 mg/kg)","AUC (0~4 h) ([1]; iv, dose 1 mg/kg, hour 4 point assumes log-linear decline)","bioavailability (in vivo; iv, 1 mg/rat)","bioavailability (in vivo; other: intracolonic bolus into the ligated colon, 10 mg/rat)",log of the partition coefficient [2],AUC∞ ([3]; colonic intubation 10 mg/rat),AUC∞ ([3]; iv 1 mg/rat),"absorption after intracolonic bolus ([3]; ligated colon, 10 mg/rat, FIG. 5)",solubility [4]
CCCCCCCCCCCCOS(=O)(=O)O.NCC1(CC(=O)O)CCCCC1 [gabapentin lauryl sulfate complex],no histopathological change visible to the naked eye,–,–,–,–,–,–,–,–,–,–,–
"NCC1(CC(=O)O)CCCCC1 [gabapentin, 1-(aminomethyl)cyclohexaneacetic acid]",no histopathological change visible to the naked eye,1705.2 ± 257.2 ng·h/mL/mg,1205.7 ± 276.3 ng·h/mL/mg,726.1 ± 223.9 ng·h/mL/mg,2727.1 ± 259.1 ng·h/mL/mg,100%,4.9%,−1.25,301.4 ng · h/mL-mg,6090.3 ng · h/mL-mg,slow absorption,freely soluble
